From patent US12384797B2, “Thioeno[3,2-b] pyridin-7-amine compounds for treating familial dysautonomia” (PTC THERAPEUTICS, INC., priority 2019, dated 2025)

What follows are compounds tested on Elongator complex protein 1 (ELP1, also referred to as IKBKAP) (assay: IKBKAP-HTRF assay (IKBKAP protein in lysates of FD patient-derived fibroblasts)). Details: 48 hours incubation, 7-point concentration curve.
Assay type: cell-based, human
Procedure: The assay is used for the quantitative determination of Elongator complex protein 1 (ELP1, also referred to as IKBKAP) concentration in cell lysates using the HTRF® (Homogeneous Time-Resolved Fluorescence) technology. IKBKAP is detected in a sandwich HTRF assay by use of an anti-IKAP antibody labeled with a donor and an anti-IKAP antibody labeled with an acceptor.
Cells were thawed and incubated in DMEM-10% FBS for 72 hours. Cells were trypsinized, counted, and re-suspended to a concentration of 50,000 cells/mL in DMEM-10% FBS. A 199 μL aliquot of the cell suspensions were plated at 10,000 cells per well in a 96 well microtiter plate and incubated for 3 to 5 hours. […] Test compounds were serially diluted 3.16-fold in 100% DMSO to generate a 7-point concentration curve. A 1 μL aliquot of 200× compound solution was transferred to cell-containing wells, and cells were incubated for 48 hours in a cell culture incubator (37° C., 5% CO2, 100% relative humidity). Triplicate samples were set up for each compound concentration. After 48 hours, the supernatant was removed from the cells and 50 μL of the 1×LB4 lysis buffer, containing protease inhibitors, was added to the cells and incubated with shaking at room temperature for 1 hour. A 36 μL aliquot of this lysate was subsequently transferred to the 384-well plate containing 4 μL of the antibody solution (1:50 dilution of anti IKAP d2 and anti-IKAP K(9+8) in detection buffer). The 384-well plate was then centrifuged for 1 minute to bring the solutions to the bottom of the plate and incubated overnight at 4° C. Fluorescence for each well of the plate at 665 nm and 620 nm was measured was on the EnVision plate reader (Perkin Elmer). The ΔF for each sample is calculated by:
[formula] wherein Signal is the normalized fluorescence for each sample well and Blank is the average normalized average fluorescence for the Blank control wells.
The maximum fold increase (MFI) in IKBKAP protein abundance for compounds of Formula (I) or a form thereof relative to the vehicle control are provided in Table 1. MFI was calculated by dividing the ΔF value for each sample well by the sample ΔF for the vehicle control wells.
The EC2x for IKBKAP protein expression obtained from the 7-point concentration curve generated for each test compound according to the protocol in Biological Example 1 are also provided in Table 1. The term “EC2x for IKBKAP protein expression” is defined as the concentration of test compound that is effective in producing two times the amount of IKBKAP protein in a FD patient cell compared to the amount produced from the DMSO vehicle control.

Structure (SMILES)	EC2x for IKBKAP protein expression (concentration producing two times the amount of IKBKAP protein vs DMSO vehicle control)	MFI (maximum fold increase in IKBKAP protein abundance relative to the vehicle control)
N[C@@H](COC(F)(F)F)Cc1sc2c(NCc3nccs3)cc(Cl)nc2c1Br [Compound 64, 2-[(2R)-2-amino-3-(trifluoromethoxy)propyl]-3-bromo-5-chloro-N-[(1,3-thiazol-2-yl)methyl]thieno[3,2-b]pyridin-7-amine]	**** (between >0.005 μM and ≤0.02 μM is indicated by four stars (****))	***** (>4.9 is indicated by five stars (*****))
Clc1cc(NCc2nccs2)c2scc(Cl)c2n1 [Compound 8, 3,5-dichloro-N-[(1,3-thiazol-2-yl)methyl]thieno[3,2-b]pyridin-7-amine]	*** (between >0.02 μM and ≤0.5 μM is indicated by three stars (***))	***** (>4.9 is indicated by five stars (*****))
C[C@H](N)Cc1sc2c(NCc3cccs3)cc(Cl)nc2c1C#N [Compound 110, 2-[(2S)-2-aminopropyl]-5-chloro-7-{[(thiophen-2-yl)methyl]amino}thieno[3,2-b]pyridine-3-carbonitrile]	***** (≤0.005 μM is indicated by five stars (*****))	**** (between >3.9 and ≤4.9 is indicated by four stars (****))
Cc1c(NC[C@H](C)N)sc2c(NCc3cccs3)cc(Cl)nc12 [Compound 163, N^2-[(2S)-2-aminopropyl]-5-chloro-3-methyl-N^7-[(thiophen-2-yl)methyl]thieno[3,2-b]pyridine-2,7-diamine]	*** (between >0.02 μM and ≤0.5 μM is indicated by three stars (***))	**** (between >3.9 and ≤4.9 is indicated by four stars (****))
N#CC[C@H](N)Cc1sc2c(NCc3cccs3)cc(Cl)nc2c1Cl [Compound 106, (3S)-3-amino-4-(3,5-dichloro-7-{[(thiophen-2-yl)methyl]amino}thieno[3,2-b]pyridin-2-yl)butanenitrile]	***** (≤0.005 μM is indicated by five stars (*****))	***** (>4.9 is indicated by five stars (*****))
N#Cc1cc(NCc2cccs2)c2scc(Br)c2n1 [Compound 11, 3-bromo-7-{[(thiophen-2-yl)methyl]amino}thieno[3,2-b]pyridine-5-carbonitrile]	*** (between >0.02 μM and ≤0.5 μM is indicated by three stars (***))	** (between >1.9 and ≤2.9 is indicated by two stars (**))
Cc1c(C[C@@H](N)CC#N)sc2c(NCc3ccco3)cc(Cl)nc12 [Compound 111, (3S)-3-amino-4-(5-chloro-7-{[(furan-2-yl)methyl]amino}-3-methylthieno[3,2-b]pyridin-2-yl)butanenitrile]	**** (between >0.005 μM and ≤0.02 μM is indicated by four stars (****))	***** (>4.9 is indicated by five stars (*****))
N[C@H](CF)Cc1sc2c(NCc3cccs3)cc(Cl)nc2c1Br [Compound 63, 2-[(2S)-2-amino-3-fluoropropyl]-3-bromo-5-chloro-N-[(thiophen-2-yl)methyl]thieno[3,2-b]pyridin-7-amine]	*** (between >0.02 μM and ≤0.5 μM is indicated by three stars (***))	** (between >1.9 and ≤2.9 is indicated by two stars (**))
Cc1c(C[C@H](C)N)sc2c(NCc3ccncc3F)cc(Cl)nc12 [Compound 35, 2-[(2S)-2-aminopropyl]-5-chloro-N-[(3-fluoropyridin-4-yl)methyl]-3-methylthieno[3,2-b]pyridin-7-amine]	***** (≤0.005 μM is indicated by five stars (*****))	***** (>4.9 is indicated by five stars (*****))
C[C@H](F)[C@H](N)Cc1sc2c(NCc3nccs3)cc(Cl)nc2c1Br [Compound 125, 2-[(2R,3S)-2-amino-3-fluorobutyl]-3-bromo-5-chloro-N-[(1,3-thiazol-2-yl)methyl]thieno[3,2-b]pyridin-7-amine]	***** (≤0.005 μM is indicated by five stars (*****))	***** (>4.9 is indicated by five stars (*****))
Cc1c(CCN)sc2c(NCc3ccco3)cc(Cl)nc12 [Compound 152, 2-(2-aminoethyl)-5-chloro-N-[(furan-2-yl)methyl]-3-methylthieno[3,2-b]pyridin-7-amine]	*** (between >0.02 μM and ≤0.5 μM is indicated by three stars (***))	** (between >1.9 and ≤2.9 is indicated by two stars (**))
Cc1c(C[C@@H](N)CCF)sc2c(NCc3cccs3)cc(Cl)nc12 [Compound 92, 2-[(2S)-2-amino-4-fluorobutyl]-5-chloro-3-methyl-N-[(thiophen-2-yl)methyl]thieno[3,2-b]pyridin-7-amine]	***** (≤0.005 μM is indicated by five stars (*****))	***** (>4.9 is indicated by five stars (*****))
Cc1c(C[C@H](C)N)sc2c(NCc3nccs3)cc(Cl)nc12 [Compound 57, 2-[(2S)-2-aminopropyl]-5-chloro-3-methyl-N-[(1,3-thiazol-2-yl)methyl]thieno[3,2-b]pyridin-7-amine]	***** (≤0.005 μM is indicated by five stars (*****))	***** (>4.9 is indicated by five stars (*****))
Cc1c(C(C)O)sc2c(NCc3ccco3)cc(Cl)nc12 (stereo not drawn) [Compound 3, 1-(5-chloro-7-{[(furan-2-yl)methyl]amino}-3-methylthieno[3,2-b]pyridin-2-yl)ethan-1-ol]	*** (between >0.02 μM and ≤0.5 μM is indicated by three stars (***))	*** (between >2.9 and ≤3.9 is indicated by three stars (***))
C[C@H](N)Cc1sc2c(NCc3ccco3)cc(C#N)nc2c1C#N [Compound 50, 2-[(2S)-2-aminopropyl]-7-{[(furan-2-yl)methyl]amino}thieno[3,2-b]pyridine-3,5-dicarbonitrile]	**** (between >0.005 μM and ≤0.02 μM is indicated by four stars (****))	**** (between >3.9 and ≤4.9 is indicated by four stars (****))
Cc1c([C@H](C)N)sc2c(NCc3ccco3)cc(Cl)nc12 [Compound 21, 2-[(1S)-1-aminoethyl]-5-chloro-N-[(furan-2-yl)methyl]-3-methylthieno[3,2-b]pyridin-7-amine]	**** (between >0.005 μM and ≤0.02 μM is indicated by four stars (****))	**** (between >3.9 and ≤4.9 is indicated by four stars (****))
N[C@@H](CO)Cc1cc2nc(Cl)cc(NCc3cccs3)c2s1 [Compound 162, (2R)-2-amino-3-(5-chloro-7-{[(thiophen-2-yl)methyl]amino}thieno[3,2-b]pyridin-2-yl)propan-1-ol]	***** (≤0.005 μM is indicated by five stars (*****))	**** (between >3.9 and ≤4.9 is indicated by four stars (****))
Cc1c(C[C@H](C)N)sc2c(NCc3ccco3)ccnc12 [Compound 34, 2-[(2S)-2-aminopropyl]-N-[(furan-2-yl)methyl]-3-methylthieno[3,2-b]pyridin-7-amine]	**** (between >0.005 μM and ≤0.02 μM is indicated by four stars (****))	***** (>4.9 is indicated by five stars (*****))
